#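 Compound exposure: 48 hours, 5 concentrations, 96-well plates. GI50: concentration for 50% inhibition of growth. TGI: concentration producing complete growth inhibition.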
# Legend:
# Test in all cases: NCI-60 cell line screen, 48 h
# [1] = tested on: SF-539 CNS
# [2] = tested on: NCI-H226 lung
# [3] = tested on: HS 578T breast
# [4] = tested on: RPMI-8226 leukemia
# [5] = tested on: OVCAR-8 ovarian
# [6] = tested on: SNB-19 CNS
# [7] = tested on: SK-MEL-5 melanoma
# [8] = tested on: HL-60(TB) leukemia
# [9] = tested on: A549 NSCLC
# [10] = tested on: NCI-H23 lung
# [11] = tested on: EKVX NSCLC
# [12] = tested on: UO-31 renal
# [13] = tested on: NCI-H460 lung
# [14] = tested on: SK-OV-3 ovarian
# [15] = tested on: 786-0 renal
# [16] = tested on: IGROV1 ovarian
# [17] = tested on: M14 melanoma
# [18] = tested on: HT29 colon
# [19] = tested on: SR leukemia
# [20] = tested on: ACHN renal
# [21] = tested on: MDA-N
# [22] = tested on: A498 renal
# [23] = tested on: U251 CNS
# [24] = tested on: OVCAR-4 ovarian
# [25] = tested on: UACC-257 melanoma
# [26] = tested on: UACC-62 melanoma
# [27] = tested on: OVCAR-3 ovarian
# [28] = tested on: SK-MEL-28 melanoma
# [29] = tested on: SF-295 CNS
# [30] = tested on: MDA-MB-435
# [31] = tested on: HOP-62 NSCLC
# [32] = tested on: KM12 colon
# [33] = tested on: SF-268 CNS
# [34] = tested on: TK-10 renal
# [35] = tested on: MCF7 breast
# [36] = tested on: CAKI-1 renal
# [37] = tested on: DU-145 prostate
# [38] = tested on: RXF 393 renal
# [39] = tested on: PC-3 prostate
# [40] = tested on: SK-MEL-2 melanoma
# [41] = tested on: K-562 leukemia
# [42] = tested on: LOX IMVI melanoma
# [43] = tested on: MDA-MB-231 breast
# [44] = tested on: HCT-116 colon
# [45] = tested on: MOLT-4 leukemia
# [46] = tested on: HCC-2998 colon
# [47] = tested on: HCT-15 colon
# [48] = tested on: COLO 205 colon
# [49] = tested on: OVCAR-5 ovarian
# [50] = tested on: NCI/ADR-RES ovarian
# [51] = tested on: SN12C renal
# [52] = tested on: SNB-75 CNS
# [53] = tested on: T-47D breast
# [54] = tested on: HOP-92 NSCLC
# [55] = tested on: SW-620 colon
# [56] = tested on: CCRF-CEM leukemia
# [57] = tested on: NCI-H522 lung
# [58] = tested on: BT-549 breast
# [59] = tested on: MALME-3M melanoma
compound,measurement,setting,value
O=C1c2c(O)cccc2Cc2cccc(O)c21,TGI,[1],0.923 µM
same,TGI,[2],1.27 µM
same,TGI,[3],1.09 µM
same,TGI,[4],1.03 µM
same,TGI,[5],1.04 µM
same,TGI,[6],5.39 µM
same,TGI,[7],0.33 µM
same,TGI,[8],0.672 µM
same,TGI,[9],1.07 µM
same,TGI,[10],12.8 µM
same,TGI,[11],0.572 µM
same,TGI,[12],1.15 µM
same,TGI,[13],1.31 µM
same,TGI,[14],1.21 µM
same,TGI,[15],1.76 µM
same,TGI,[16],1.56 µM
same,TGI,[17],1.97 µM
same,TGI,[18],1.55 µM
same,TGI,[19],1.74 µM
same,TGI,[20],1.1 µM
same,TGI,[21],10.2 µM
same,TGI,[22],4.81 µM
same,TGI,[23],1.47 µM
same,TGI,[24],1.8 µM
same,TGI,[25],0.653 µM
same,TGI,[26],3.07 µM
same,TGI,[27],1.97 µM
same,TGI,[28],3.75 µM
same,TGI,[29],0.782 µM
same,TGI,[30],11.2 µM
same,TGI,[31],1.32 µM
same,TGI,[32],1.32 µM
same,TGI,[33],3.25 µM
same,TGI,[34],5.35 µM
same,TGI,[35],0.664 µM
same,TGI,[36],1.2 µM
same,TGI,[37],0.942 µM
same,TGI,[38],1.33 µM
CN1C(=O)C(CCO)(C(C)(C)C)c2ccccc21 (stereo not given),TGI,[2],> 100 µM
same,TGI,[39],> 100 µM
same,TGI,[3],> 100 µM
same,TGI,[4],> 100 µM
same,TGI,[5],> 100 µM
same,TGI,[40],> 100 µM
same,TGI,[6],> 100 µM
same,TGI,[41],> 100 µM
same,TGI,[7],> 100 µM
same,TGI,[8],> 100 µM
same,TGI,[9],> 100 µM
same,TGI,[10],> 100 µM
same,TGI,[11],> 100 µM
same,TGI,[42],> 100 µM
same,TGI,[12],> 100 µM
same,TGI,[13],> 100 µM
same,TGI,[14],> 100 µM
same,TGI,[43],> 100 µM
same,TGI,[44],> 100 µM
same,TGI,[15],> 100 µM
same,TGI,[17],> 100 µM
same,TGI,[19],> 100 µM
same,TGI,[45],> 100 µM
same,TGI,[20],> 100 µM
same,TGI,[46],> 100 µM
same,TGI,[21],> 100 µM
same,TGI,[47],> 100 µM
same,TGI,[48],> 100 µM
same,TGI,[23],> 100 µM
same,TGI,[24],> 100 µM
same,TGI,[25],> 100 µM
same,TGI,[26],> 100 µM
same,TGI,[49],> 100 µM
same,TGI,[50],> 100 µM
same,TGI,[27],> 100 µM
same,TGI,[28],> 100 µM
same,TGI,[29],> 100 µM
same,TGI,[30],> 100 µM
same,TGI,[51],> 100 µM
same,TGI,[52],> 100 µM
same,TGI,[31],> 100 µM
same,TGI,[53],> 100 µM
same,TGI,[54],> 100 µM
same,TGI,[32],> 100 µM
same,TGI,[33],> 100 µM
same,TGI,[55],> 100 µM
same,TGI,[35],> 100 µM
same,TGI,[56],> 100 µM
same,TGI,[36],> 100 µM
same,TGI,[37],> 100 µM
same,TGI,[38],> 100 µM
Cc1ccc(C(=O)Nc2ccc(CN3CCN(C)CC3)c(C(F)(F)F)c2)cc1C#Cc1cnc(N)cc1C#N,GI50,[1],0.277 µM
same,TGI,[1],0.926 µM
same,GI50,[2],0.155 µM
same,TGI,[2],4.95 µM
same,GI50,[39],0.343 µM
same,TGI,[39],1.76 µM
same,GI50,[3],0.143 µM
same,TGI,[3],1.33 µM
same,GI50,[4],0.496 µM
same,TGI,[4],2.7 µM
same,GI50,[5],0.224 µM
same,TGI,[5],1.15 µM
same,GI50,[40],0.108 µM
same,TGI,[40],0.479 µM
same,GI50,[6],0.539 µM
same,TGI,[6],1.3 µM
same,GI50,[41],0.005 µM
same,TGI,[41],6.12 µM
same,GI50,[7],0.741 µM
same,TGI,[7],1.43 µM
same,GI50,[8],0.233 µM
same,TGI,[8],1.08 µM
same,GI50,[9],0.233 µM
same,TGI,[9],0.958 µM
same,GI50,[10],0.34 µM
same,TGI,[10],1.28 µM
same,GI50,[11],0.366 µM
same,TGI,[11],1.44 µM
same,GI50,[42],0.0394 µM
same,TGI,[42],0.522 µM
same,GI50,[12],0.0949 µM
same,TGI,[12],0.442 µM
same,GI50,[13],0.0915 µM
same,TGI,[13],0.968 µM
same,GI50,[14],0.186 µM
same,TGI,[14],2.5 µM
same,GI50,[57],0.176 µM
same,TGI,[57],0.925 µM
same,GI50,[43],0.112 µM
same,TGI,[43],0.621 µM
same,GI50,[44],0.0852 µM
same,TGI,[44],0.642 µM
same,GI50,[15],0.162 µM
same,TGI,[15],0.826 µM
same,GI50,[16],0.0265 µM
same,TGI,[16],0.276 µM
same,GI50,[17],0.021 µM
same,TGI,[17],0.511 µM
same,GI50,[18],0.051 µM
same,TGI,[18],0.729 µM
same,GI50,[19],0.162 µM
same,TGI,[19],1.23 µM
same,GI50,[45],0.137 µM
same,TGI,[45],1.08 µM
same,GI50,[20],0.074 µM
same,TGI,[20],0.555 µM
same,GI50,[46],0.407 µM
same,TGI,[46],1.17 µM
same,GI50,[47],0.13 µM
same,TGI,[47],0.762 µM
same,GI50,[48],0.0901 µM
same,TGI,[48],0.714 µM
same,GI50,[22],0.159 µM
same,TGI,[22],0.701 µM
same,GI50,[23],0.222 µM
same,TGI,[23],0.997 µM
same,GI50,[24],0.0998 µM
same,TGI,[24],1.42 µM
same,GI50,[58],0.654 µM
same,TGI,[58],2.67 µM
same,GI50,[25],0.132 µM
same,TGI,[25],0.834 µM
same,GI50,[26],0.031 µM
same,TGI,[26],0.452 µM
same,GI50,[49],0.309 µM
same,TGI,[49],1.42 µM
same,GI50,[59],0.0276 µM
same,TGI,[59],0.187 µM
same,GI50,[50],0.27 µM
same,TGI,[50],1.68 µM
same,GI50,[27],0.211 µM
same,TGI,[27],1.01 µM
same,GI50,[28],0.106 µM
same,TGI,[28],0.701 µM
same,GI50,[29],0.315 µM
same,TGI,[29],1.16 µM
same,GI50,[30],0.0721 µM
same,TGI,[30],0.659 µM
same,GI50,[51],0.0918 µM
same,TGI,[51],0.733 µM
same,GI50,[52],0.112 µM
same,TGI,[52],0.798 µM
same,GI50,[31],0.298 µM
same,TGI,[31],2.05 µM
same,GI50,[53],0.605 µM
same,TGI,[53],8.71 µM
same,GI50,[54],0.0496 µM
same,TGI,[54],0.566 µM
same,GI50,[32],0.122 µM
same,TGI,[32],0.716 µM
same,GI50,[33],0.2 µM
same,TGI,[33],1.2 µM
same,GI50,[55],0.33 µM
same,TGI,[55],1.15 µM
same,GI50,[34],0.19 µM
same,TGI,[34],0.833 µM
same,GI50,[35],0.701 µM
same,TGI,[35],1.58 µM
same,GI50,[56],0.46 µM
same,TGI,[56],9.61 µM
same,GI50,[36],0.0828 µM
same,TGI,[36],0.538 µM
same,GI50,[37],0.127 µM
same,TGI,[37],0.838 µM
same,GI50,[38],0.129 µM
same,TGI,[38],0.706 µM

# — PubChem BioAssay (NCI)
